Laboratory results from PubChem BioAssay (NCI).
Values joined by “and” are separate entries in the source; they are usually repeats but may differ in a detail not shown here. Equal entries are not always repeated.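 Interpolation was linear, between the two tested concentrations surrounding the appropriate level; five concentrations were tested over 48 hours in 96-well plates. Abbreviation: GI50, concentration required for 50% inhibition of growth. TGI is the concentration that stops growth completely.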

Tests used:
Test in all cases: NCI anticancer screen, dose series, 48 h
SN12C renal = tested on: SN12C renal
OVCAR-8 ovarian = tested on: OVCAR-8 ovarian
HT29 colon = tested on: HT29 colon
SW-620 colon = tested on: SW-620 colon
SNB-19 CNS = tested on: SNB-19 CNS
CCRF-CEM leukemia = tested on: CCRF-CEM leukemia
PC-3 prostate = tested on: PC-3 prostate
HOP-62 NSCLC = tested on: HOP-62 NSCLC
T-47D breast = tested on: T-47D breast
SF-295 CNS = tested on: SF-295 CNS
NCI-H460 lung = tested on: NCI-H460 lung
786-0 renal = tested on: 786-0 renal
MALME-3M melanoma = tested on: MALME-3M melanoma
UO-31 renal = tested on: UO-31 renal
RPMI-8226 leukemia = tested on: RPMI-8226 leukemia

| SMILES | TGI (SN12C renal) | TGI (OVCAR-8 ovarian) | TGI (HT29 colon) | TGI (SW-620 colon) | TGI (SNB-19 CNS) [µM] | TGI (CCRF-CEM leukemia) | TGI (PC-3 prostate) [µM] | TGI (HOP-62 NSCLC) | TGI (T-47D breast) [µM] | TGI (SF-295 CNS) [µM] | TGI (NCI-H460 lung) [µM] | TGI (786-0 renal) [µM] | TGI (MALME-3M melanoma) | TGI (UO-31 renal) | TGI (RPMI-8226 leukemia) | GI50 (SW-620 colon) | GI50 (CCRF-CEM leukemia) | GI50 (MALME-3M melanoma) [nM] | GI50 (PC-3 prostate) [µM] | GI50 (T-47D breast) [µM] |
| --- | --- | --- | --- | --- | --- | --- | --- | --- | --- | --- | --- | --- | --- | --- | --- | --- | --- | --- | --- | --- |
| CC1CC[C@@]2(OC1)OC1CC3C4CCC5C[C@@H](OC6OC(CO)C(OC7OC(CO)C(O)C(OC8OC(CO)C(O)C(OC9OC(CO)C(O)C(O)C9O)C8O)C7OC7OC(CO)C(O)C(O)C7O)C(O)C6O)[C@H](O)C[C@]5(C)C4CC[C@]3(C)C1[C@@H]2C (stereo not given in full) | > 80.5 µM | > 80.5 µM | > 80.5 µM | > 80.5 µM | > 80.5 | > 80.5 µM | > 80.5 | > 80.5 µM | > 80.5 | > 80.5 | > 80.5 | > 80.5 | > 80.5 µM | – | – | – | – | – | – | – |
| O=S(=O)(O)c1ccc(N=Nc2c(O)ccc3cc(Br)ccc23)cc1 | > 100 µM | > 100 µM | > 100 µM | > 100 µM | > 100 | > 100 µM | > 100 | > 100 µM | > 100 | > 100 | – | > 100 | > 100 µM | > 100 µM | > 100 µM | – | – | – | – | – |
| OC1CCOc2ccccc21 (stereo not given) | > 100 µM | > 100 µM | > 100 µM | > 100 µM | > 100 | > 100 µM | – | > 100 µM | – | – | > 100 | – | > 100 µM | > 100 µM | > 100 µM | – | – | – | – | – |
| CNC(=O)SCC(N)C(=O)O (stereo not given) | > 100 µM | > 100 µM | > 100 µM | > 100 µM | > 100 | > 100 µM | – | > 100 µM | – | > 100 | > 100 | – | > 100 µM | > 100 µM | > 100 µM | – | – | – | – | – |
| COc1cccc(/C=N/[N-]C(N)=O)c1[O-].[Ni+2].[OH3+].c1ccc(-c2ccccn2)nc1 | > 100 µM | > 100 µM | > 100 µM | > 100 µM | – | > 100 µM | – | > 100 µM | – | > 100 | > 100 | – | > 100 µM | > 100 µM | > 100 µM | – | – | – | – | – |
| CC(=O)OC/C=C\Cn1nc(Br)c(=O)[nH]c1=O | 55.2 µM | 34.7 µM | – | 32.3 µM | 37.7 | 24.5 µM | 26 | 45.1 µM | 37.1 | – | 26.7 | – | 31.1 µM | 31.2 µM | 72.7 µM | – | – | – | – | – |
| C[C@]12CC/C(=N\O)C=C1CC[C@@H]1[C@@H]2CC[C@]2(C)C(=N/O)/C(=C/c3ccc([N+](=O)[O-])cc3)C[C@@H]12 | 30.7 µM | – | 21.9 µM | > 100 µM | > 100 | 16 µM | 34.5 | > 100 µM | 3.69 | 8.96 | > 100 | 27.7 | 71 µM | 20.4 µM | 7.61 µM | – | – | – | – | – |
| CCOC(=O)c1c(Cl)nc2ccccc2c1N=[N+]=[N-] | 30.7 µM | – | 34.2 µM | 35.1 µM | > 100 | > 100 µM | 68.5 | > 100 µM | 45.7 | > 100 | 63.6 | – | > 100 µM | 36.5 µM | > 100 µM | – | – | – | – | – |
| C1=C(c2ccccc2)Nc2nnnn2C1c1ccccc1 (stereo not given) | > 100 µM | > 100 µM | 41.5 µM | 55.9 µM | > 100 | 0.0305 µM | > 100 | > 100 µM | > 100 | 88.5 | > 100 | > 100 | – | > 100 µM | – | – | – | – | – | – |
| COC(=O)c1c(O)ccc2c1c1c(n2Cc2ccc(Cl)cc2Cl)C(=O)c2ccccc2C1=O | 5.62 µM | 21.4 µM | 32.1 µM | 32.4 µM | 30.6 | 29.9 µM | 21.3 | 23.5 µM | 13.7 | 31.5 | 13 | 22.9 | 34.2 µM | 22.8 µM | 13.5 µM | – | – | – | – | – |
| CC(=O)O[C@H]1/C(=C/c2ccncc2)C[C@H]2[C@@H]3CC=C4C[C@@H](N5CCCC5)CC[C@]4(C)[C@H]3CC[C@]12C | 30.8 µM | 28.2 µM | 14.1 µM | 31.9 µM | 31.9 | 38.5 µM | 26.6 | 30.4 µM | 29.3 | 29.4 | 24.8 | 10.3 | 28 µM | 18.1 µM | 23.4 µM | – | – | – | – | – |
| CC1CCC2(C(=O)O)CCC3(C)C(=CCC4C5(C)CCC(O)C(C)(C)C5CCC43C)C2C1C (stereo not given) | 18.9 µM and 36.1 µM | 21 µM and 35.2 µM | 22.9 µM and 37.7 µM | 16.9 µM and > 100 µM | 17.9 | 27.9 µM and > 100 µM | 29.3 | 21.8 µM and 39.1 µM | 29.3 | 10.2 | 24.8 | > 100 | 25.6 µM and 28.9 µM | 16.6 µM and 14.5 µM | 24.3 µM and 31.5 µM | 5.07 µM and 46.9 µM | 3.59 µM and 16.6 µM | – | – | – |
| O=C(N/N=C/c1cc(Cl)cc(Cl)c1[O-])c1ccccc1O.O=C(N/N=C/c1cc(Cl)cc(Cl)c1[O-])c1ccccc1O.[Zn+2] | – | 3.38 µM | 13.7 µM | 20.9 µM | 15 | – | – | – | – | 5.21 | – | – | 8.56 µM | 10.6 µM | – | – | – | 1370 | – | – |
| CCC(=O)c1ccc2[nH]c3c(C)c4c(=O)cc(C)[nH]c4c(C)c3c2c1 | – | > 100 µM | > 100 µM | > 100 µM | > 100 | > 100 µM | > 100 | > 100 µM | > 100 | > 100 | > 100 | > 100 | > 100 µM | > 100 µM | – | – | – | – | – | – |
| C/C=C/C1=CC(=O)C(O)C1O (stereo not given) | 64 µM | 79.9 µM | 102 µM | 99.3 µM | 124 | 103 µM | – | 126 µM | – | 118 | 51.4 | – | 87.4 µM | 106 µM | 102 µM | – | – | – | – | – |
| COc1ccc(/C(O)=C/c2nc3cccnc3nc2/C=C(\O)c2ccc(OC)cc2)cc1 | 42.5 µM | 35.6 µM | 79.3 µM | – | 57.5 | > 100 µM | > 100 | 20 µM | 86.1 | 46.3 | 32.6 | 10.4 | 52.2 µM | 71.2 µM | > 100 µM | – | – | – | – | – |
| COc1cc(OC)c(/C=C\c2cc(/C=C/c3c(OC)cc(OC)cc3OC)c3ccccc3[n+]2C)c(OC)c1 | 9.8 µM | 5.34 µM | 5.93 µM | > 36.3 µM | 40 | – | 11.5 | 16.3 µM | 7.11 | 10.9 | 8.92 | 7.56 | 4.52 µM | > 55.4 µM | – | – | – | – | – | – |
| Cc1ccc(-c2cc(C(F)(F)F)nn2-c2ccc(S(N)(=O)=O)cc2)cc1 | 42.1 µM | > 62.8 µM | > 55.5 µM | > 56.3 µM | > 56.7 | 40.7 µM | 34.1 | > 100 µM | > 61.8 | 55.4 | 37.4 | > 89.2 | 46.6 µM | > 53.2 µM | 29.9 µM | – | – | – | – | – |
| S=C1CC(c2ccccc2)Sc2ccccc2N1 (stereo not given) | > 100 µM | > 100 µM | > 100 µM | – | > 100 | > 100 µM | > 100 | 60.1 µM | > 100 | > 100 | > 100 | – | > 100 µM | > 100 µM | > 100 µM | – | – | – | – | – |
| [O-][n+]1ccccc1S | > 100 µM | > 100 µM | 2.32 µM | 23.1 µM | > 100 | – | > 100 | 13.1 µM | > 100 | 9.51 | 5.21 | > 100 | 89.1 µM | > 100 µM | 6.47 µM | – | – | – | 3.61 | 6.27 |
| CC1(C)Cc2c(C#N)c(N)c3c(c2CO1)C(=O)OC3=O | > 100 µM | > 100 µM | > 100 µM | > 100 µM | > 100 | > 100 µM | – | > 100 µM | – | – | > 100 | – | > 100 µM | > 100 µM | > 100 µM | – | – | – | – | – |
| CC(=O)NC(CCC(=O)C=[N+]=N)C(=O)O (stereo not given) | > 100 µM | > 100 µM | > 100 µM | > 100 µM | > 100 | > 100 µM | > 100 | > 100 µM | > 100 | > 100 | > 100 | > 100 | > 100 µM | > 100 µM | > 100 µM | – | – | – | – | – |
| Cc1[nH]nc(N)c1C(N)=O | > 100 µM | > 100 µM | > 100 µM | > 100 µM | > 100 | > 100 µM | – | – | – | > 100 | – | – | > 100 µM | > 100 µM | > 100 µM | – | – | – | – | – |
